In patent US20240053345A1, “POLYPEPTIDES BINDING SELECTIVELY HEPARIN OR HEPARAN SULFATE GLYCOSAMINOGLYCANS AND CELL-PENETRATING POLYPEPTIDES COMPRISING THE SAME” (SORBONNE UNIVERSITE, priority 2020, published 2024):
Where a SMILES comes first, the peptide text is derived from it. The star is where a group is joined. Biotin = O=C1N[C@H]2[C@H](CS[C@H]2CCCCC(=O)*)N1

Key:
[1] = tested on: CHO-745, CHO-K1, CaOV-3 and SKOV-3 cells; assay: Quantification of internalization of peptides in four cell lines; type: cell-based; settings: CHO-K1 or the two ovarian cancer cells (CaOV-3, SKOV-3) vs CHO-745; 1 h incubation at 37° C.
Method: (§1) FIG. 2: Quantification of the internalization of peptides, studied in GAGs-deficient cells CHO-745 (white bar), wild type cells CHO-K1 (light grey bar) and two ovarian adenocarcinoma cells CaOV-3 (dark grey bar) and SKOV-3 (black bar) after 1 h incubation at 37° C. Experiments were done in duplicate or triplicate and repeated at least three times independently. Significance was tested using a student's t-test (NS:p>0.05, *0.05>p>0.01, **0.01>p>0.001, ***0.001>p).
(§2) Peptides listed in Table 1 were incubated separately in the following four ovarian cell types which have different GAGs types and expression levels: wild type CHO-K1 (expressing heparan sulfate (HS), chondroitin sulfate A (CSA) and C (CSC)), CHO-pgs A475 (CHO-745) (genetically modified to express only 5-10% HS and CS), two human ovarian adenocarcinoma cells CaOV-3 (overexpressing HS and CSE) and SKOV-3 (overexpressing CSE). Peptides were incubated with one million cells at 37° C. for 1 h.
(§3) Wild type Chinese Hamster Ovary (CHO-K1) cells and GAGs-deficient mutant CHO-745 cells which lack the xylosyltransferase needed for glycosaminoglycan (GAG) synthesis were grown in Dulbecco's modified Eagle's medium F-12 (DMEMF-12) with L-glutamine and 15 mM HEPES. HEK cells and HeLa cells were grown in DMEM with 4.5 g/L D-glucose and pyruvate. Two types of human ovarian cancer cell lines CaOV-3 and SKOV-3 were cultured in DMEM with Glutamax and McCoy's 5A medium, respectively. All complete culture medium was supplemented with 10% fetal bovine serum, penicillin (100,000 IU/L), streptomycin (100 mg/L). Cells were grown in a humidified atmosphere at 37° C. and 5% CO2.

[2] = tested on: SKOV-3 cells; assay: Internalization of peptides in SKOV-3 cells, also after sodium chlorate or GAG-specific enzyme pre-treatment; type: cell-based, human; settings: for internalization after chondroitinase ABC (ChABC) treatment: enzyme pre-treatment 2 h; for internalization after heparinases cocktail treatment: heparinases I, II and III pre-treatment 2 h; for cellular uptake in SKOV-3 compared to CHO-K1: 1 h at 37° C.
Method: as §1
FIG. 4: Quantification of P3 after SKOV-3 pre-treatment with sodium chlorate for 24 h or GAG-specific enzymes for 2 h (a) and P1 after SKOV-3 pre-treatment with GAG-specific enzymes for 2 h (b). Experiments were done in duplicate or triplicate and repeated at least three times independently. Significance was tested using a student's t-test (NS:p>0.05, *0.05>p>0.01, **0.01>p>0.001, ***0.001>p).
as §2, §3
Tested Peptides were incubated separately in the following ovarian cell type: SKOV-3. A pre-treatment with sodium chlorate for 24 h or GAG-specific enzymes for 2 h.
The inventors used different concentrations of chlorate to treat SKOV-3 and analyzed the internalization of P3. […] The inventors also checked that there is no cytotoxicity generated by 100 mM concentration of NaClO3. […] Not merely impairment of sulfation leads to significant P3 internalization decline, enzymatic GAGs degradation might also impact on peptide internalization. They used two specific enzymes: one is the blend of heparinases I, II and III that are extracted from Flavobacterium heparinum and hydrolyze the glycosidic bonds of glucosamine and uronic acids; the other one is chondroitinase ABC (ChABC) lyase purified from Proteus Vulgaris that specifically catalyzes the degradation of chondroitin 4-sulfate, chondroitin 6-sulfate containing (1-4)-β-D-hexosaminyl and (1-3)-β-D-glucuronosyl or (1-3)-α-L-iduronosyl linkages to disaccharides containing 4-deoxy-β-D-gluc-4-enuronosyl groups.

[3] = tested on: CHO-K1 cells
Method: (§6) The inventors tested cytotoxicity and hemolysis activity of the peptides incubated with CHO-K1 cells at different concentrations.

[4] = tested on: blood cells; assay: Hemolysis; type: cell-based; settings: even at 50 μM for 2 h
Method: as §6

[5] = tested on: CHO-745 cells; assay: Internalization of peptides in GAGs-deficient cells with exogenous GAGs, quantified by MS; type: cell-based, Chinese Hamster; settings: for cellular quantity of internalized peptide: 7.5 μM peptide
Method: (§4) FIG. 3: Quantification of internalization of chimeric peptides P1, P3 and P5 in cells CHO-745 (a,b) and in CaOV-3 cells (c,d). Peptides were incubated with cells for 1 h along with heparin (a) or chondroitin sulfate-E (b). P1 was also incubated with CaOV-3 for 1 h along with heparin (c) and P3 incubated with CaOV-3 in the presence of CS-E (d) at different concentrations. Experiments were done in duplicate or triplicate and repeated at least three times independently.
FIG. 5: The effect of heparin favoring P1 internalization can be reversed by addition of heparinase in […].
as §3
(§5) Tested Peptides were incubated separately in the following two ovarian cell types: CHO-745 and CaOV-3. The inventors incubated (7.5 μM) peptides with cells lines for 1 h along with exogenous heparin (HI) or chondroitin-4,6-sulfate (CSE) and quantified the internalized peptides by MS.
P1 was incubated in the CHO-745 ovarian cell type with different concentrations of heparinase. Cells culture are similar to the example 1.

[6] = Binding to chondroitin sulfate-E
[7] = tested on: CaOV-3 cells; assay: Internalization of peptides in CaOV-3 cells; type: cell-based, human; settings: for internalization efficacy in CaOV-3 compared to CHO-K1 / intracellular concentration of internalized peptide: 1 h at 37° C.; for intracellular concentration of internalized peptide: 1 pmol in 1 million cells taken as 1 μM (1 pL/cell)
Method: as §1, §4, §2, §3, §5

[8] = co-incubation with 7.2 μg/ml HI, 1 h
[9] = co-incubation with 7.2 μg/ml CSE, 1 h

Row | Molecule | internalization compared with CHO-745 cells [1] | internalization after chondroitinase ABC (ChABC) treatment ([2]; SKOV-3) | internalization after heparinases cocktail treatment ([2]; SKOV-3) | cytotoxicity [3] | hemolysis of blood cells [4] | cellular quantity of internalized peptide [5, 8] | effect of CSE addition on internalization ([5]; exogenous CSE, 1 h) | effect of degradation fragments of HI on internalization ([5]; heparin degraded by heparinase) | effect of intact HI on internalization ([5]; intact heparin) | binding to CSE [6] | internalization efficacy in CaOV-3 compared to CHO-K1 [7] | intracellular concentration of internalized peptide ([7]; CaOV-3) | effect of HI on relative internalization ([7]; CaOV-3, exogenous heparin, 1 h) | cellular uptake in SKOV-3 compared to CHO-K1 [2] | cellular quantity of internalized peptide [5, 9] | internalization efficacy after sodium chlorate pre-treatment ([2]; SKOV-3, sodium chlorate 24 h, concentration-dependent) | effect of CSE addition on internalization ([7]; CaOV-3, CSE 7.2 μg/ml, 1 h) | effect of CSE addition on internalization ([7]; CaOV-3, CSE concentrations below 3.6 μg/ml, 1 h)
1 | CC[C@H](C)[C@H](NC(=O)[C@H](CCCCN)NC(=O)[C@H](C)NC(=O)[C@H](CCCNC(=N)N)NC(=O)[C@H](CCCCN)NC(=O)[C@H](CC(N)=O)NC(=O)[C@H](CCC(N)=O)NC(=O)[C@H](Cc1ccccc1)NC(=O)[C@H](Cc1c[nH]c2ccccc12)NC(=O)[C@@H](NC(=O)[C@H](CCCCN)NC(=O)[C@@H](NC(=O)[C@H](CCC(N)=O)NC(=O)[C@H](CO)NC(=O)[C@H](CCCNC(=N)N)NC(=O)[C@@H]1CCCN1C(=O)[C@H](CCCNC(=N)N)NC(=O)[C@H](CCCCN)NC(=O)[C@H](CC(=O)O)NC(=O)[C@H](CCC(=O)O)NC(=O)[C@H](CCCCN)NC(=O)[C@H](CC(N)=O)NC(=O)[C@@H]1CCCN1C(=O)[C@H](CC(N)=O)NC(=O)[C@H](CCCCN)NC(=O)[C@H](CCCCN)NC(=O)[C@H](CCCCN)NC(=O)[C@@H]1CCCN1C(=O)[C@H](CCCCN)NC(=O)[C@H](CCCNC(=N)N)NC(=O)[C@H](CO)NC(=O)[C@H](CCCNC(=N)N)NC(=O)CNC(=O)CNC(=O)CNC(=O)CNC(=O)CNC(=O)CCCC[C@@H]1SC[C@@H]2NC(=O)N[C@@H]21)[C@@H](C)CC)[C@@H](C)CC)C(=O)N[C@@H](CCCCN)C(=O)N[C@@H](CCCCN)C(N)=O [P1, Biotin-G5-RSRKPKKKNPNKEDKRPR SQIKIWFQNKRAKIKK-NH2] (Biotin-GGGGGRSRKPKKKNPNKEDKRPRSQIKIWFQNKRAKIKK-NH2) | entered significantly more | decrease | decrease | not Cytotoxic | no hemolysis | around 21 pmol | made no effect | lost the ability | promoted P1 internalization | high binding affinity | increased their internalization efficacy | 7 µM | favorable effect | – | – | – | – | –
2 | Biotin-GGGG-KEDKRPRTAFTAEQL SQIKIWFQNKRAKIKK-NH2 [P5] | entered significantly more | – | – | – | – | ~22 pmol | – | – | – | – | increased their internalization efficacy | 7 µM | – | apparently increased their cellular uptake | 2.2 pmol | – | – | –
3 | CC[C@H](C)[C@H](NC(=O)[C@H](CCCCN)NC(=O)[C@H](C)NC(=O)[C@H](CCCNC(=N)N)NC(=O)[C@H](CCCCN)NC(=O)[C@H](CC(N)=O)NC(=O)[C@H](CCC(N)=O)NC(=O)[C@H](Cc1ccccc1)NC(=O)[C@H](Cc1c[nH]c2ccccc12)NC(=O)[C@@H](NC(=O)[C@H](CCCCN)NC(=O)[C@@H](NC(=O)[C@H](CCC(N)=O)NC(=O)[C@H](CO)NC(=O)[C@H](CC(C)C)NC(=O)[C@H](CCC(N)=O)NC(=O)[C@H](C)NC(=O)[C@H](CCCNC(=N)N)NC(=O)[C@@H](NC(=O)[C@H](Cc1ccccc1)NC(=O)[C@@H](NC(=O)[C@@H](NC(=O)[C@H](CCCNC(=N)N)NC(=O)[C@H](CCC(=O)O)NC(=O)[C@H](CCCNC(=N)N)NC(=O)[C@H](CCCNC(=N)N)NC(=O)[C@H](CCC(N)=O)NC(=O)[C@H](CCCCN)NC(=O)[C@H](CCCNC(=N)N)NC(=O)CNC(=O)CNC(=O)CNC(=O)CNC(=O)CNC(=O)CCCC[C@@H]1SC[C@@H]2NC(=O)N[C@@H]21)[C@@H](C)O)[C@@H](C)O)[C@@H](C)O)[C@@H](C)CC)[C@@H](C)CC)C(=O)N[C@@H](CCCCN)C(=O)N[C@@H](CCCCN)C(N)=O [P3, Biotin-G5-RKQRRERTTFTRAQL SQIKIWFQNKRAKIKK-NH2] (Biotin-GGGGGRKQRRERTTFTRAQLSQIKIWFQNKRAKIKK-NH2) | entered significantly more | significantly curtailed internalization | almost no difference | not Cytotoxic | no hemolysis | ~28 pmol | – | – | – | – | increased their internalization efficacy | 24 µM | – | apparently increased their cellular uptake | around 6.5 pmol | dramatically reduced | evokes P3 internalization | inhibited P3 internalization
4 | SQIKIWFQNKRAKIKK [En2H3, Ac-SQIKIWFQNKRAKIKK-NH2] | entered significantly more | – | – | – | – | – | – | – | – | – | increased their internalization efficacy | 7 µM | – | – | – | – | – | –
